Literature values as cited in US8252902B2, “Antibody targeting compounds” (The Scripps Research Institute, priority 2001, dated 2012).

Columns and labels:
[1] = test system: HIV primary isolates and laboratory-adapted strains
[2] = biological target: VEGFR-2 (Homo sapiens, UniProt P35968)
[3] = test system: VEGF-mediated angiogenesis

VEGFR-2, sequence (P35968 20-1356, species assumed): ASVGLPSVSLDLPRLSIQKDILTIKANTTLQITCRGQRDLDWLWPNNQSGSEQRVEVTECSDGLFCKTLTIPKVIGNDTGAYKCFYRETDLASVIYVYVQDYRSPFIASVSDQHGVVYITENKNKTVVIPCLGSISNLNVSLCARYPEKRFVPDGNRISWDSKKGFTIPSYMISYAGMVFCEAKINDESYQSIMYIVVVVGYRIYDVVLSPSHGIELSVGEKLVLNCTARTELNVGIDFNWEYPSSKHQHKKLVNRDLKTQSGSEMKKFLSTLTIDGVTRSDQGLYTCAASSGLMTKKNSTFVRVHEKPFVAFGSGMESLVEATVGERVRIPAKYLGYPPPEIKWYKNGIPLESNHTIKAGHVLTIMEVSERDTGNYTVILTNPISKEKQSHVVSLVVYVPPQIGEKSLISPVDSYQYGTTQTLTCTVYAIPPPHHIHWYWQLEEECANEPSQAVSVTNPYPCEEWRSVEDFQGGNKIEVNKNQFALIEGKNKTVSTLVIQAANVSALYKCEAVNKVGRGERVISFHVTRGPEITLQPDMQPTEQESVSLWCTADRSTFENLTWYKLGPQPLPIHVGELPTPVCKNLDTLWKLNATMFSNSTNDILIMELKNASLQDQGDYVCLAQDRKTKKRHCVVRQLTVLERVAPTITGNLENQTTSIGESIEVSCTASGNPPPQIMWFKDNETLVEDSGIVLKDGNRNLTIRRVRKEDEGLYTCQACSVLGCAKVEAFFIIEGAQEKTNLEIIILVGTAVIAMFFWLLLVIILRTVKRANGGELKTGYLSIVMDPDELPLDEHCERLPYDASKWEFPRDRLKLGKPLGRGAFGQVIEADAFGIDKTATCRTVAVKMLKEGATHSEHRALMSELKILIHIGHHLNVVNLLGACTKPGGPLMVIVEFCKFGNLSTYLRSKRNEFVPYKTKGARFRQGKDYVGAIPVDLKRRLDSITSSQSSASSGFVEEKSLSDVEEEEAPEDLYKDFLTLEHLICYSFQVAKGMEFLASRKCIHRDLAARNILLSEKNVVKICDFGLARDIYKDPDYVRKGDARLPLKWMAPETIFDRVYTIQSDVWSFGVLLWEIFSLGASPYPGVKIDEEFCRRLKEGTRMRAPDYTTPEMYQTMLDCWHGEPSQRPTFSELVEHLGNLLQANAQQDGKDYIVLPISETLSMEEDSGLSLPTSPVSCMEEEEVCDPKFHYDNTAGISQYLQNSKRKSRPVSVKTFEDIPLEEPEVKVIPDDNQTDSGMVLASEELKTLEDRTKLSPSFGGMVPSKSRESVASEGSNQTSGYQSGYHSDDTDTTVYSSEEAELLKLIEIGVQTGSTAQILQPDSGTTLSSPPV

Compound	anti-HIV activity [1]	interference with VEGF binding to VEGFR-2 [2]	inhibition of VEGF-mediated angiogenesis [3]
C=C(C)[C@@H]1CC[C@]2(C(=O)NCCCCCCCC(=O)N[C@@H](CC(C)C)[C@H](O)CC(=O)O)CC[C@]3(C)[C@H](CC[C@@H]4[C@@]5(C)CC[C@H](O)C(C)(C)[C@@H]5CC[C@]43C)[C@@H]12 [IC9564]	can inhibit both HIV primary isolates and laboratory-adapted strains	–	–
ATWLPPR (homo sapiens) [ATWLPPR (SEQ ID NO: 2)]	–	effectively interfered	inhibited
